Measured values as given in patent US20240285571A1, “METHODS OF TREATING BONE INFECTIONS” (MICROBION CORPORATION, priority 2020, published 2024).

Experiments:
[1] = system: vancomycin-intermediate Staphylococcus aureus; test: Broth microdilution MIC (Example 6); format: cell-based
Description: (§1) Test Compounds: The test agents BisEDT (MB-1-B3; Lot No. ED268-1-11-01), MB-2B, and MB-6 were stored at room temperature, in the dark, until assayed. The solvent and diluent for the test agents was DMSO (Sigma; St. Louis, MO; Lot No. SHBB9319V) and the prepared stock concentration was 6,464 μg/mL (101× the final test concentration).
(§2) Test compounds were evaluated at a concentration range of 0.06-64 μg/mL. For Gram-negative test isolates, amikacin and ceftazidime (alone and with clavulanate at a fixed concentration of 4 μg/mL) were evaluated over a concentration range of 0.06-64 μg/mL; meropenem and levofloxacin were evaluated over a concentration range of 0.008-8 μg/mL. For the testing of S. aureus, clindamycin, daptomycin, levofloxacin and vancomycin were evaluated at a concentration range of 0.008-8 μg/mL; linezolid was tested from 0.03-32 μg/mL.
(§3) Media: Cation-adjusted Mueller Hinton broth (CAMHB; BD; Lot No. 8190586) was used as the medium for testing (2, 3). For testing daptomycin, calcium was supplemented with […] Ca^2+, resulting in a final concentration of […] Ca^2+ (2, 3).
(§4) MIC Assay Procedure: MIC values were determined using a broth microdilution procedure described by CLSI (2, 3). Automated liquid handlers (Multidrop 384, Labsystems, Helsinki, Finland; Biomek 2000 and Biomek F X, Beckman Coulter, Fullerton CA) were used to conduct serial dilutions and liquid transfers.
(§5) To prepare the drug mother plates, which would provide the serial drug dilutions for the replicate daughter plates, the wells of columns 2 through 12 of standard 96-well microdilution plates (Costar 3795) were filled with 150 μl of the appropriate diluent for each row of drug. The test articles and comparator compounds (300 μl at 101× the highest concentration to be tested) were dispensed into the appropriate wells in column 1. The Biomek 2000 was then used to make 2-fold serial dilutions in the mother plates from column 1 through column 11. The wells of column 12 contained no drug and served as the organism growth control wells for the assay.
(§6) The daughter plates were loaded with 190 μL per well of RPMI using the Multidrop 384. The test panels were prepared on the Biomek FX instrument which transferred 2 μL of drug solution from each well of a mother plate to the corresponding well of each daughter plate in a single step.
(§7) A standardized inoculum of each test organism was prepared per CLSI methods to equal a 0.5 McFarland standard, followed by a dilution of 1:20. The plates were then inoculated with 10 μL of the diluted inoculum using the Biomek 2000 from low to high drug concentration resulting in a final concentration of approximately 5×10^5 CFU/mL.
(§8) Plates were stacked 3-4 high, covered with a lid on the top plate, placed into plastic bags, and incubated at 35° C. for 16 to 20 hr (vancomycin was read for S. aureus after 24 hr incubation time). The MIC was recorded as the lowest concentration of drug that inhibited visible growth of the organism.

[2] = system: relevant ATCC QC organisms; test: Broth microdilution MIC, QC (Example 6); format: cell-based; conditions: S. aureus ATCC 29213
Description: as §1, §2
Organisms: The test organisms as shown in Tables 11-15 consisted of clinical isolates from the Micromyx (MMX) repository and reference strains from the American Type Culture Collection (ATCC; Manassas, VA), National Collection of Type Cultures (NCTC; Public Health England, Salisbury, UK), the Network on Antimicrobial Resistance in Staphylococcus aureus (NARSA; BEI Resources, Manassas, VA), and the Centers for Disease Control and Prevention (CDC; Atlanta, GA). The test organisms were maintained frozen at −80° C. Prior to testing, the isolates were cultured on Tryptic Soy Agar with 5% sheep blood (BAP; Becton Dickson [BD]/BBL; Sparks, MD; Lot Nos. 9080650 and 9108563) at 35° C. Relevant ATCC quality control (QC) organisms (Table 16) were included during testing in accordance with CLSI guidelines (3). Further details on the genetic characterization of the isolates where available can be found in Table 17.
as §3, §4, §5, §6, §7, §8

S. aureus (MRSA, MSSA) = test: MIC of baseline clinical isolates (Example 8); format: cell-based; conditions: Staphylococcus aureus, MRSA baseline isolates (N′ = 4), central laboratory, mITT
Description: (§9) Microbiology was assessed on Day 1 and at the time of any subsequent surgical procedure at the index site. Samples were collected from the infected bone site or involved tissue adjacent to any implant(s), swabs of the deep infection site, and the superficial tissue/wound closure/sinus tract site. […] Parallel sets of samples were analyzed by the local clinical site laboratory to guide patient antibiotic treatment.

S. epidermidis = test: MIC of baseline clinical isolates (Example 8); format: cell-based; conditions: Staphylococcus epidermidis baseline isolates (N′ = 5), central laboratory, mITT
Description: as §9

Staphylococcus arlettae = test: MIC of baseline clinical isolates (Example 8); format: cell-based; conditions: Staphylococcus arlettae baseline isolates (N′ = 1), central laboratory, mITT
Description: as §9

[3] = system: Staphylococcus haemolyticus; test: MIC of baseline clinical isolates (Example 8); format: cell-based; conditions: Staphylococcus haemolyticus baseline isolates (N′ = 1), central laboratory, mITT
Description: as §9

Staphylococcus hominis = test: MIC of baseline clinical isolates (Example 8); format: cell-based; conditions: Staphylococcus hominis baseline isolates (N′ = 1), central laboratory, mITT
Description: as §9

[4] = system: Staphylococcus lugdunensis; test: MIC of baseline clinical isolates (Example 8); format: cell-based; conditions: Staphylococcus lugdunensis baseline isolates (N′ = 3), central laboratory, mITT
Description: as §9

Staphylococcus pasteuri = test: MIC of baseline clinical isolates (Example 8); format: cell-based; conditions: Staphylococcus pasteuri baseline isolates (N′ = 1), central laboratory, mITT
Description: as §9

[5] = system: Corynebacterium amycolatum; test: MIC of baseline clinical isolates (Example 8); format: cell-based; conditions: Corynebacterium amycolatum baseline isolates (N′ = 1), central laboratory, mITT
Description: (§10) Microbiology was assessed on Day 1 and at the time of any subsequent surgical procedure at the index site. Samples were collected from the infected bone site or involved tissue adjacent to any implant(s), swabs of the deep infection site, and the superficial tissue/wound closure/sinus tract site. Isolation and identification of aerobic and anerobic bacteria was conducted at a central microbiology laboratory (IHMA, Schaumburg, IL) and susceptibility of the isolates to MBN-101 (BisEDT) and comparator agents was performed per Clinical and Laboratory Standards Institute (CLSI). Parallel sets of samples were analyzed by the local clinical site laboratory to guide patient antibiotic treatment.

Corynebacterium jeikeium = test: MIC of baseline clinical isolates (Example 8); format: cell-based; conditions: Corynebacterium jeikeium baseline isolates (N′ = 2), central laboratory, mITT
Description: as §10

[6] = system: Corynebacterium resistens; test: MIC of baseline clinical isolates (Example 8); format: cell-based; conditions: Corynebacterium resistens baseline isolates (N′ = 1), central laboratory, mITT
Description: as §10

Dermabacter hominis = test: MIC of baseline clinical isolates (Example 8); format: cell-based; conditions: Dermabacter hominis baseline isolates (N′ = 1), central laboratory, mITT
Description: as §10

Streptococcus oralis = test: MIC of baseline clinical isolates (Example 8); format: cell-based; conditions: Streptococcus oralis baseline isolates (N′ = 1), central laboratory, mITT
Description: as §10

[7] = system: non-speciated Corynebacterium; test: MIC of baseline clinical isolates (Example 8); format: cell-based; conditions: Corynebacterium non-speciated baseline isolates (N′ = 2), central laboratory, mITT
Description: as §10

[8] = system: relevant ATCC QC organisms; conditions: S. aureus ATCC 29213; CLSI established QC range; cited from earlier work
[9] = S. aureus isolate NRS 1 (hVISA)
[10] = S. aureus isolate NRS 24 (hVISA)

Row | SMILES | MIC [1, 9] [µg/mL] | MIC ([1]; S. aureus isolate NRS 2) [µg/mL] | MIC ([1]; S. aureus isolate NRS 3) [µg/mL] | MIC ([1]; S. aureus isolate NRS 4) [µg/mL] | MIC ([1]; S. aureus isolate NRS 13) [µg/mL] | MIC ([1]; S. aureus isolate NRS 18) [µg/mL] | MIC ([1]; S. aureus isolate NRS 22) [µg/mL] | MIC [1, 10] [µg/mL] | MIC ([1]; S. aureus isolate NRS 27) [µg/mL] | MIC [2] [µg/mL] | Mean MIC (S. aureus (MRSA, MSSA)) [µg/mL] | n (% resistant) (S. aureus (MRSA, MSSA)) | Mean MIC (S. epidermidis) [µg/mL] | n (% resistant) (S. epidermidis) | Mean MIC (Staphylococcus arlettae) [µg/mL] | n (% resistant) (Staphylococcus arlettae) | Mean MIC [3] [µg/mL] | Mean MIC (Staphylococcus hominis) [µg/mL] | n (% resistant) (Staphylococcus hominis) | Mean MIC [4] [µg/mL] | also measured
1 | CC(=O)NC[C@H]1CN(c2ccc(N3CCOCC3)c(F)c2)C(=O)O1 [LZD] | 1 | 4 | 1 | 1 | 2 | 1 | 1 | 2 | 2 | 4 | 1.25 | 0 (0.0) n (%) | 0.80 | 0 (0.0) n (%) | 2.00 | 0 (0.0) n (%) | 1.00 | 0.50 | 0 (0.0) n (%) | 0.83 | n (% resistant) [3]: 0 (0.0) n (%); n (% resistant) [4]: 0 (0.0) n (%); Mean MIC (Staphylococcus pasteuri): 1.00 µg/mL; n (% resistant) (Staphylococcus pasteuri): 0 (0.0) n (%); Mean MIC [5]: 0.12 µg/mL; n (% resistant) [5]: 0 (0.0) n (%); Mean MIC (Corynebacterium jeikeium): 0.38 µg/mL; n (% resistant) (Corynebacterium jeikeium): 0 (0.0) n (%); Mean MIC [6]: 0.25 µg/mL; n (% resistant) [6]: 0 (0.0) n (%); Mean MIC (Dermabacter hominis): 0.50 µg/mL; n (% resistant) (Dermabacter hominis): 0 (0.0) n (%); Mean MIC (Streptococcus oralis): 1.00 µg/mL; n (% resistant) (Streptococcus oralis): 0 (0.0) n (%); Mean MIC [7]: 0.18 µg/mL; n (% resistant) [7]: 0 (0.0) n (%); MIC QC range (in parentheses) [8]: (1-4) μg/mL
2 | CN[C@H](CC(C)C)C(=O)N[C@H]1C(=O)N[C@@H](CC(N)=O)C(=O)N[C@H]2C(=O)N[C@H]3C(=O)N[C@H](C(=O)N[C@H](C(=O)O)c4cc(O)cc(O)c4-c4cc3ccc4O)[C@H](O)c3ccc(c(Cl)c3)Oc3cc2cc(c3O[C@@H]2O[C@H](CO)[C@@H](O)[C@H](O)[C@H]2O[C@H]2C[C@](C)(N)[C@H](O)[C@H](C)O2)Oc2ccc(cc2Cl)[C@H]1O [VAN] | 4 | 0.5 | 8 | 4 | 2 | 4 | 4 | 2 | 2 | 0.5 | 1.25 | 0 (0.0) n (%) | 150 | 0 (0.0) n (%) | 2.00 | 0 (0.0) n (%) | 1.00 | 2.00 | 0 (0.0) n (%) | 0.83 | n (% resistant) [4]: 0 (0.0) n (%); Mean MIC (Staphylococcus pasteuri): 1.00 µg/mL; n (% resistant) (Staphylococcus pasteuri): 0 (0.0) n (%); n (% resistant) [5]: 0 (0.0) n (%); n (% resistant) (Corynebacterium jeikeium): 0 (0.0) n (%); Mean MIC [6]: 1.00 µg/mL; n (% resistant) [6]: 0 (0.0) n (%); Mean MIC (Dermabacter hominis): 0.25 µg/mL; n (% resistant) (Dermabacter hominis): 0 (0.0) n (%); Mean MIC (Streptococcus oralis): 0.50 µg/mL; n (% resistant) (Streptococcus oralis): 0 (0.0) n (%); Mean MIC [7]: 0.12 µg/mL; n (% resistant) [7]: 0 (0.0) n (%); MIC QC range (in parentheses) [8]: (0.5-2) μg/mL
